Here are results for 14 compounds from PMC7751407, “Novel oxindole/benzofuran hybrids as potential dual CDK2/GSK-3β inhibitors targeting breast cancer: design, synthesis, biological evaluation, and in silico studies” (Journal of Enzyme Inhibition and Medicinal Chemistry, 2020).

What is called IC50 is the concentration at which inhibition is half-maximal. One may read the melting point as the temperature, or range, at which the solid turns liquid.

Series [1] has as its system MCF-7. The series can be described thus: MTT anti-proliferative assay, MCF-7 breast cancer cells. It counts as cell-based. Conditions: Homo sapiens, MCF7, 48 h exposure, mean ± SD of three separate experiments. As for the experimental part: (§1) 1. Anti-proliferative activity toward human breast cell lines
(§2) The two examined human breast cancer cell lines (T-47D and MCF-7) have been obtained from American Type Culture Collection (ATCC). Cells lines were maintained as monolayers in Dulbecco’s Modified Eagle’s Medium (DMEM) supplemented with 10% FBS, 2 mM L-glutamine, 100 U/ml penicillin and 100µg/ml streptomycin sulfate. Cells were sub-cultured with trypsine /EDTA solution, counted with haemocytometer and plated onto 96-well plates (5000 cells/well) and left overnight to form a semi-confluent monolayer. Cell monolayers were treated in quadrates with vehicle (DMSO, 0.1% v/v), test samples or Adriamycin as positive control for an exposure time of 48 h. At the end of exposure, MTT solution in PBS (5 mg/ml) was then added to all well including no cell blank and left to incubate for 90 min. The formation of formazan crystals were visually confirmed using phase contract microscopy. DMSO (100 µl/well) was added to dissolve the formazan crystals with shaking for 10 min after which the absorbance was read at 590 nm against no cell blanks on a FLuo Star Optima microplate reader (BMG technologies, Germany).
(§3) Cell proliferation was calculated comparing the OD values of the DMSO control wells and those of the samples represented as % proliferation to the control. Dose-response experiment was performed on samples producing > or =50% loss of cell proliferation using five serial 2-fold […]
(§4) IC50 values (concentration of sample causing 50% loss of cell proliferation of the vehicle control) were calculated using non-linear regression curve fitting of the dose response plots on GraphPad Prism V.6.0 software. […]
Background: Tetrazolium dyes change colour on reduction, which living cells bring about.

Series [2] has as its system T-47D. The series is described as follows: MTT anti-proliferative assay, T-47D breast cancer cells. Format: cell-based. Conditions: Homo sapiens, T47D, 48 h exposure, mean ± SD of three separate experiments. As for the experimental part: as §1, §2, §3, §4
Series [3] concerns the target T1, CDK2 (Homo sapiens, UniProt P24941).
T1 construct: purchased Promega, Milan, Italy V2971
The series is described as follows: CDK2 kinase inhibition (CDK2 Kinase Enzyme System, Promega). It counts as biochemical. Conditions: mean ± SD of three separate experiments. The procedure: (§5) 2. CDK2/GSK-3β Kinase Inhibitory Activities
(§6) The CDK2 and GSK-3β inhibitory activities were determined for hybrids 5a-g using the CDK2
(§7) Kinase Enzyme System (catalog No. V2971) (Promega, Milan, Italy), and GSK3β Assay Kit

The target of series [4] is T2, GSK-3β (Homo sapiens, UniProt P49841).
T2 construct: purchased BPS Biosciences, San Diego, CA, USA 79700
T2 sequence (P49841 whole entry): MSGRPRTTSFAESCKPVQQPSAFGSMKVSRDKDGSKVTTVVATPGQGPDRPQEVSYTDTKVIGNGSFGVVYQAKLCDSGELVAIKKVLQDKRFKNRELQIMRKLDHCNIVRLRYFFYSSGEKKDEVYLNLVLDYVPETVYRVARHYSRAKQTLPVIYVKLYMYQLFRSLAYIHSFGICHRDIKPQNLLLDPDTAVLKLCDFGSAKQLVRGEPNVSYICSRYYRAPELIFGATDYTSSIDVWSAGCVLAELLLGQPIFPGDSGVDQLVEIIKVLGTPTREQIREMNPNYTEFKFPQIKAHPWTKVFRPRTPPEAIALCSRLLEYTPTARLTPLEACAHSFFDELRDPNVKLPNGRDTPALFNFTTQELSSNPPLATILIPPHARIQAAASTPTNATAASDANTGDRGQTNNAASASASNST
The series can be described thus: GSK-3β kinase inhibition (GSK3β Assay Kit, BPS Biosciences). It counts as biochemical. Conditions: mean ± SD of three separate experiments. The procedure: as §5, §6, §7

`O=C1Nc2ccccc2C1=NNC(=O)c1cc2cc(Br)ccc2o1` [5a, 5-Bromo-N'-(2-oxoindolin-3-ylidene)benzofuran-2-carbohydrazide] displayed a melting point of more than 300 °C. Besides, the IC50 in series [1] was found to be 5.47 ± 0.16 µM. In series [2], this compound came in with an IC50 of 9.67 ± 0.31 µM. In series [3], the IC50 is 0.141 ± 0.0077 µM. The compound further registered an IC50 in series [4] of 0.137 ± 0.0075 µM.
With `O=C1Nc2ccc(F)cc2C1=NNC(=O)c1cc2cc(Br)ccc2o1` [5b, 5-Bromo-N'-(5-fluoro-2-oxoindolin-3-ylidene)benzofuran-2-carbohydrazide], the melting point was more than 300 °C. Half-maximal inhibition in series [1] (IC50) required 12.9 ± 0.38 µM. The compound also gave an IC50 in series [2] of 1.27 ± 0.04 µM. Moreover, in series [3], the IC50 amounted to 0.0525 ± 0.0029 µM. This compound registered an IC50 in series [4] of 0.212 ± 0.012 µM.
The corresponding values for `O=C1Nc2ccc(Cl)cc2C1=NNC(=O)c1cc2cc(Br)ccc2o1` [5c, 5-Bromo-N'-(5-chloro-2-oxoindolin-3-ylidene)benzofuran-2-carbohydrazide] are more than 300 °C, 12.5 ± 0.37 µM, 6.03 ± 0.19 µM, 0.0854 ± 0.0046 µM and 0.102 ± 0.0056 µM.
In the same order, the values of `Cc1cc(C)c2c(c1)C(=NNC(=O)c1cc3cc(Br)ccc3o1)C(=O)N2` [5g, 5-Bromo-N'-(5,7-dimethyl-2-oxoindolin-3-ylidene)benzofuran-2-carbohydrazide] are more than 300 °C, 12 ± 0.35 µM, 6.65 ± 0.21 µM, 0.105 ± 0.0057 µM and 0.0755 ± 0.0041 µM.
`CN1C(=O)C(=NNC(=O)c2cc3cc(Br)ccc3o2)c2ccccc21` [7a, 5-Bromo-N'-(1-methyl-2-oxoindolin-3-ylidene)benzofuran-2-carbohydrazide] yielded a melting point of 260 to 262 °C. For the same compound, half-maximal inhibition in series [1] (IC50) required 10.4 ± 1.01 µM. In addition, the IC50 in series [2] came out at 11.8 ± 1.05 µM.
The corresponding values for `C=CCN1C(=O)C(=NNC(=O)c2cc3cc(Br)ccc3o2)c2ccccc21` [7b, N'-(1-Allyl-2-oxoindolin-3-ylidene)-5-bromobenzofuran-2-carbohydrazide] are 207 to 209 °C, 2.64 ± 0.07 µM and 12.2 ± 0.4 µM.
The corresponding values for `CC(C)CN1C(=O)C(=NNC(=O)c2cc3cc(Br)ccc3o2)c2ccccc21` [7c, 5-Bromo-N'-(1-isobutyl-2-oxoindolin-3-ylidene)benzofuran-2-carbohydrazide] are 216 to 218 °C, 37 ± 1.87 µM and 43.3 ± 2.39 µM.
As to `CCOC(=O)CN1C(=O)C(=NNC(=O)c2cc3cc(Br)ccc3o2)c2ccccc21` [7d, Ethyl-2–(3-(2–(5-bromobenzofuran-2-carbonyl)hydrazono)-2-oxoindolin-1-yl)acetate], the melting point was in the range of 215 to 216 °C. The same compound had an IC50 in series [1] of 7.48 ± 0.22 µM. In series [2], this compound gave an IC50 of 19 ± 0.62 µM.
In the same order, the values of `O=C(NN=C1C(=O)N(Cc2ccccc2)c2ccccc21)c1cc2cc(Br)ccc2o1` [7e, N'-(1-Benzyl-2-oxoindolin-3-ylidene)-5-bromobenzofuran-2-carbohydrazide] are 248 to 250 °C, 8.33 ± 0.24 µM and 11.8 ± 0.38 µM.
Take `O=C(NN=C1C(=O)N(CCc2ccccc2)c2ccccc21)c1cc2cc(Br)ccc2o1` [7f, 5-Bromo-N'-(2-oxo-1-phenethylindolin-3-ylidene)benzofuran-2-carbohydrazide]: the melting point was in the range of 239 to 241 °C. Also, in series [1], it took 24.7 ± 0.72 µM to reach half-maximal inhibition (IC50). This compound yielded an IC50 in series [2] of 38.7 ± 1.26 µM.
In turn, `CC(C)CN1C(=O)C(=NNC(=O)c2cc3cc(Br)ccc3o2)c2cc(Br)ccc21` [7g, 5-Bromo-N'-(5-bromo-1-isobutyl-2-oxoindolin-3-ylidene)benzofuran-2-carbohydrazide] registered a melting point of 244 to 246 °C. In series [1], half-maximal inhibition (IC50) required 24.8 ± 0.73 µM. In addition, half-maximal inhibition in series [2] (IC50) required 9.67 ± 0.31 µM.
The corresponding values for `O=C(NN=C1C(=O)N(Cc2ccccc2)c2ccc(Br)cc21)c1cc2cc(Br)ccc2o1` [7h, N'-(1-Benzyl-5-bromo-2-oxoindolin-3-ylidene)-5-bromobenzofuran-2-carbohydrazide] are 236 to 237 °C, 4.32 ± 0.12 µM and 1.72 ± 0.04 µM.
In turn, `CC(C)CN1C(=O)C(=NNC(=O)Nc2cc3cc(Br)ccc3o2)c2ccccc21` [13a, N-(5-Bromobenzofuran-2-yl)-2–(1-isobutyl-2-oxoindolin-3-ylidene)hydrazine-1-carboxamide] displayed a melting point of 208 to 210 °C. The same compound displayed an IC50 in series [1] of 18.2 ± 0.53 µM. In series [2], this compound yielded an IC50 of 3.22 ± 0.1 µM.
`O=C(NN=C1C(=O)N(Cc2ccccc2)c2ccccc21)Nc1cc2cc(Br)ccc2o1` [13b, 2–(1-Benzyl-2-oxoindolin-3-ylidene)-N-(5-bromobenzofuran-2-yl)hydrazine-1-carboxamide] came in with a melting point of 217 to 219 °C. The IC50 in series [1] was 5.7 ± 0.16 µM. Besides, the IC50 in series [2] was 10.9 ± 0.35 µM.
